Read-outs that look alike come from different tables or passages of the source.
Key:
[1] = LD50 acute toxicity in mice, i.p. and p.o. (Weil method); conditions: mouse, in vivo
Protocol: The LD50 of the novel compounds of the invention was determined in mice, both i.p. and p.o., following the method described by C. S. Weil, Biometrics, 8, 249 (1952).

urinary bladder = test: Cystometric recordings in conscious rats (urodynamic parameters); type: in vivo; conditions: conscious rat, perfusion started 60 min after administration
Protocol: The activity on the urodynamic parameters was detected by cystometric recordings, carried out in conscious rats, according to the method of […] et al, IRCS Medicinal Science, in press (1986), similar to that described by Sjogren, Acta Pharmacol. Toxicol., 39, 177 (1976). The intravesical pressure was recorded during a continuous infusion of saline (37° C.) into the urinary bladder at the constant rate of 0.15 ml/min. […] The perfusion started 60 minutes after administration of the compound.

| Compound | LD50 ([1]; ip, read-out: LD50 i.p.) [mg/kg] | LD50 ([1]; po, read-out: LD50 p.o.) [mg/kg] | % Change BVC (bladder volume capacity) (urinary bladder; 10 mg/kg p.o.) | % Change MP (micturition pressure) (urinary bladder; 10 mg/kg p.o.) [%] | % Change BVC (bladder volume capacity) (urinary bladder; 30 mg/kg p.o.) | % Change MP (micturition pressure) (urinary bladder; 30 mg/kg p.o.) [%] |
| --- | --- | --- | --- | --- | --- | --- |
| CC1=C(C(=O)OCCN(C)Cc2ccccc2)C(c2cccc3c(=O)c(C)c(-c4ccccc4)oc23)C(C(=O)OC(C)C)=C(C)N1 (centres unmarked) [v, isopropyl 2-(N-benzyl-N-methylamino)ethyl 2,6-dimethyl-4-(3-methylflavon-8-yl)-1,4-dihydropyridine-3,5-dicarboxylate] | 959 | > 3000 | +19% | -16 | +22% | -23 |
| C#CCOC(=O)C1=C(C)NC(C)=C(C(=O)OC)C1c1cccc2c(=O)c(C)c(-c3ccccc3)oc12 (centres unmarked) [xii, Methyl propargyl 2,6-dimethyl-4-(3-methylflavon-8-yl)-1,4-dihydropyridine-3,5-dicarboxylate] | 597 | > 3000 |  |  |  |  |
| CC1=C(C(=O)OCCN(C)CCC(c2ccccc2)c2ccccc2)C(c2cccc3c(=O)c(C)c(-c4ccccc4)oc23)C(C(=O)OC(C)C)=C(C)N1 (centres unmarked) [vi, isopropyl 2-(N-(3,3-diphenylpropyl)-N-methylamino)ethyl 2,6-dimethyl-4-(3-methylflavon-8-yl)-1,4-dihydropyridine-3,5-dicarboxylate] | > 1000 | > 3000 |  |  | +31% | -1 |
| COC(=O)C1=C(C)NC(C)=C(C(=O)OC)C1c1cccc2c(=O)c(C)c(-c3ccccc3)oc12 [i, Dimethyl 2,6-dimethyl-4-(3-methylflavon-8-yl)-1,4-dihydropyridine-3,5-dicarboxylate] | 889 | > 3000 | +18% | -14 | +21% | -19 |
| CCOC(=O)C1=C(C)NC(C)=C(C(=O)OC)C1c1cccc2c(=O)c(C)c(-c3ccccc3)oc12 (centres unmarked) [viii, Methyl ethyl 2,6-dimethyl-4-(3-methylflavon-8-yl)-1,4-dihydropyridine-3,5-dicarboxylate] | > 1000 | > 3000 |  |  |  |  |
| CC1=C(C(=O)OCCCl)C(c2cccc3c(=O)c(C)c(-c4ccccc4)oc23)C(C(=O)OC(C)C)=C(C)N1 (stereo not drawn) [iii, Isopropyl beta-chloroethyl 2,6-dimethyl-4-(3-methylflavon-8-yl)-1,4-dihydropyridine-3,5-dicarboxylate] | > 1000 | > 3000 |  |  | +15% | -1 |
| CC1=C(C(=O)OCCN2CCCCC2)C(c2cccc3c(=O)c(C)c(-c4ccccc4)oc23)C(C(=O)OC(C)C)=C(C)N1 (centres unmarked) [iv, Isopropyl 2,N-piperidinoethyl 2,6-dimethyl-4-(3-methylflavon-8-yl)-1,4-dihydropyridine-3,5-dicarboxylate] | 222 | > 3000 |  |  |  |  |
